Activity calls are given as the source filed them.
How the values were obtained:
[1] = tested on: 3T3-L1; assay: Reduction in lipogenesis in mouse 3T3L1 cells assessed as down regulation of Scd1 gene exression by real time-qPCR analysis; type: functional, cell-based
[2] = tested on: 3T3-L1; assay: Effect on adipogenesis in mouse 3T3L1 cells assessed as reduction in Pparg gene expression at 5 to 50 uM after 4 days by real time quantitative PCR analysis relative to vehicle-treated control; type: functional, cell-based
[3] = tested on: 3T3-L1; assay: Effect on adipogenesis in mouse 3T3L1 cells assessed as reduction in Srebf1 gene expression at 5 to 50 uM after 4 days by real time quantitative PCR analysis relative to vehicle-treated control; type: functional, cell-based
[4] = tested on: 3T3-L1; assay: Effect on adipogenesis in mouse 3T3L1 cells in DI media assessed as increase in lipid accumulation at <25 uM after 8 days by fluorescence-based AdipoRed assay; type: functional, cell-based
[5] = tested on: 3T3-L1; assay: Activation of AMPK in mouse 3T3L1 cells assessed as AMPK phosphorylation at 50 uM after 5 to 48 hrs by Western blotting analysis; type: cell-based
[6] = tested on: 3T3-L1; assay: Effect on adipogenesis in mouse 3T3L1 cells in DI media assessed as reduction in lipid accumulation at 50 uM measured on day 8 by fluorescence-based AdipoRed assay; type: functional, cell-based
[7] = tested on: 3T3-L1; assay: Effect on adipogenesis in mouse 3T3L1 cells assessed as reduction in Fabp4 gene expression at 5 to 50 uM after 8 days by real time quantitative PCR analysis relative to vehicle-treated control; type: functional, cell-based
[8] = tested on: 3T3-L1; assay: Effect on adipogenesis in mouse 3T3L1 cells assessed as increase in Srebf1 gene expression at 5 to 50 uM after 8 days by real time quantitative PCR analysis relative to vehicle-treated control; type: functional, cell-based
[9] = Cytotoxicity against mouse 3T3L1 cells assessed as LDH release at 50 uM after 48 hrs; type: cell-based; details: 3t3-l1, 48 h
[10] = tested on: 3T3-L1; assay: Reduction in triglyceride release in mouse 3T3L1 cells at 50 uM after 48 hrs by oil red o assay; type: functional, cell-based
[11] = tested on: 3T3-L1; assay: Effect on adipogenesis in mouse 3T3L1 cells assessed as reduction in Adipoq gene expression at 5 to 50 uM after 4 days by real time quantitative PCR analysis relative to vehicle-treated control; type: functional, cell-based
[12] = tested on: 3T3-L1; assay: Reduction in lipogenesis in mouse 3T3L1 cells assessed as down regulation of Srebf1 gene exression by real time-qPCR analysis; type: functional, cell-based
[13] = target: T1, Peroxisome proliferator-activated receptor gamma (Homo sapiens) (UniProt P37231); assay: Competitive binding to human GST-tagged PPAR-gamma at <=100 uM by TR-FRET assay
T1 sequence (whole entry): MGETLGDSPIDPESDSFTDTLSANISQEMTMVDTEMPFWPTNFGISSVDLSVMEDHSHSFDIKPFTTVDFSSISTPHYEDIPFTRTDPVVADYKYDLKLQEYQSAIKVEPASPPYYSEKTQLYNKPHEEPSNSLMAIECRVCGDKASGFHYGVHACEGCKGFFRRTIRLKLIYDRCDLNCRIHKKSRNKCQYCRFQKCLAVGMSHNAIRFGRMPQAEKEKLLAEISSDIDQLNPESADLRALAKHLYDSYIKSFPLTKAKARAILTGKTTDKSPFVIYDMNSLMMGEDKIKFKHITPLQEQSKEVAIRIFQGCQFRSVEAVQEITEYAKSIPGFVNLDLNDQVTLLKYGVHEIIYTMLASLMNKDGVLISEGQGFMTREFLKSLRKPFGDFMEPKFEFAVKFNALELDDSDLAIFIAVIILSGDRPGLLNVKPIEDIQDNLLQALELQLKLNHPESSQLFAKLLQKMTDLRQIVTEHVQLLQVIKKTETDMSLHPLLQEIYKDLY

[14] = tested on: 3T3-L1; assay: Effect on adipogenesis in mouse 3T3L1 cells in DI media assessed as increase in fat-laden mature adipocytes at <25 uM after 8 days by oil red o assay; type: functional, cell-based
[15] = tested on: 3T3-L1; assay: Effect on adipogenesis in mouse 3T3L1 cells assessed as reduction in Cebpa gene expression at 5 to 50 uM after 4 days by real time quantitative PCR analysis relative to vehicle-treated control; type: functional, cell-based
[16] = tested on: 3T3-L1; assay: Induction of lipolysis in mouse 3T3L1 cells assessed as up-regulation of Atgl gene exression by real time-qPCR analysis; type: functional, cell-based
[17] = tested on: 3T3-L1; assay: Effect on adipogenesis in mouse 3T3L1 cells assessed as reduction in Pparg gene expression at 5 to 50 uM after 8 days by real time quantitative PCR analysis relative to vehicle-treated control; type: functional, cell-based
[18] = tested on: 3T3-L1; assay: Reduction in lipogenesis in mouse 3T3L1 cells assessed as down regulation of Fasn gene exression by real time-qPCR analysis; type: functional, cell-based
[19] = target: T2, Peroxisome proliferator-activated receptor alpha (Homo sapiens) (UniProt Q07869); assay: Agonist activity at PPAR-alpha (unknown origin) by transactivation assay
T2 sequence (whole entry): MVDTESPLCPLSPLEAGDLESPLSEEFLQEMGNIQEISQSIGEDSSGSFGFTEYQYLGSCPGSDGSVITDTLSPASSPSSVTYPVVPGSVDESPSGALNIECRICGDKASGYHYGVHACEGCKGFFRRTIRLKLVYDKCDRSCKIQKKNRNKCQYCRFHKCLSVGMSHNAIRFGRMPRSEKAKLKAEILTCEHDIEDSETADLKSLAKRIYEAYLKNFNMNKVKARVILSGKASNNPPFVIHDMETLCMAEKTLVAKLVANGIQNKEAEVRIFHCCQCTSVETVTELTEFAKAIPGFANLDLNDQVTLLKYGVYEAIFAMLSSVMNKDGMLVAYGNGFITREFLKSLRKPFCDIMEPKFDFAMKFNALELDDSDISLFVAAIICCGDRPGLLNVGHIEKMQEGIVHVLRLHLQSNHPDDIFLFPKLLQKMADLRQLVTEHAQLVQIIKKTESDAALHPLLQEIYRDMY

[20] = tested on: 3T3-L1; assay: Induction of lipolysis in mouse 3T3L1 cells assessed as increase in glycerol level at 50 uM after 48 hrs by UV-Vis spectrophotometry; type: functional
[21] = tested on: 3T3-L1; assay: Effect on adipogenesis in mouse 3T3L1 cells assessed as reduction in Cebpa gene expression at 5 to 50 uM after 8 days by real time quantitative PCR analysis relative to vehicle-treated control; type: functional, cell-based
[22] = tested on: 3T3-L1; assay: Reduction in triglyceride release in mouse 3T3L1 cells at 50 uM after 48 hrs by fluorescence-based AdipoRed assay; type: functional, cell-based

CCCCCCCc1oc2cc(O)ccc2c(=O)c1-c1ccc(OC)cc1
inactive: Activity [5] | Activity [7] | Activity [19]
2: fold change (FC) [20]
active: Activity [1] | Activity [2] Dose-dependent effect | Activity [3] Dose-dependent effect | Activity [4] | Activity [6] | Activity [8] Dose-dependent effect | Activity [10] | Activity [11] Dose-dependent effect | Activity [12] | Activity [13] | Activity [14] | Activity [15] Dose-dependent effect | Activity [16] | Activity [17] Dose-dependent effect | Activity [18] | Activity [21] Dose-dependent effect | Activity [22]
Toxic: Activity [9]

Source: ChEMBL document CHEMBL3352398, “2-(2-Bromophenyl)-formononetin and 2-heptyl-formononetin are PPARγ partial agonists and reduce lipid accumulation in 3T3-L1 adipocytes” (Bioorg Med Chem, 2014)
